Molecular target: SPAK (Homo sapiens, UniProt Q9UEW8)
Assay type: biochemical

Nc1ncnc2occ(-c3ccc(NC(=O)Nc4cc(C(F)(F)F)ccc4F)cc3)c12 [YU252, YU239252]
IC50: 8.23 µM
